Experimental findings from DBAASP are described below.

Some test systems named below: Escherichia coli BW25113; Escherichia coli J2210; Escherichia coli JJ2489; Escherichia coli JW0013; Escherichia coli MC1041; Escherichia coli; Bacillus megaterium Bm11; Escherichia coli C25; Escherichia coli 078; Escherichia coli K88; Escherichia coli K99; Escherichia coli UB1005.
Assay in all cases: ≥ marks a high value that may be exact or a test limit, other limits are often not marked, values filed in µg/mL are converted to µM
For test [1], the system named is Escherichia coli ATCC 25922.
For test [2], the system named is Listeria monocytogenes KCTC 19111.
The test system of test [3] is Pseudomonas aeruginosa ATCC 15692.
Test [4] deals with Salmonella typhimurium KCTC 1926.
Test [5] deals with Staphylococcus aureus ATCC 25923.
In test [6] the test system is Staphylococcus epidermidis KCTC 1917.
The test system of test [7] is Escherichia coli DH5alpha.
The test system of test [8] is Porphyromonas gingivalis W50.
In test [9] the test system is Pseudomonas aeruginosa PAO1.
The subject of test [10] is Escherichia coli K12 MG1655.
For test [11], the system named is Escherichia coli JW0368 ΔsbmA.
The subject of test [12] is Escherichia coli JW2778 ΔygdD.
The subject of test [13] is Salmonella enterica serovar Tennessee.
The test system of test [14] is Salmonella enterica subsp. enterica serovar Enteritidis MH91989.
Test [15] concerns Salmonella enterica subsp. enterica serovar Infantis.
Test [16] deals with Salmonella enterica subsp. enterica serovar Newport.
Test [17] deals with Salmonella typhimurium SL1344.
Test [18] has as its system Candida albicans ATCC 90028.
The test system of test [19] is Enterobacter cloacae ATCC 49141.
For test [20], the system named is Enterococcus faecalis ATCC 19433.
Test [21] relates to Klebsiella aerogenes ATCC 35029.
Test [22] deals with Pseudomonas aeruginosa ATCC 27853.
Test [23] relates to Pseudomonas aeruginosa ATCC 9027.
The subject of test [24] is Pseudomonas aeruginosa Ps4.
Test [25] has as its system Staphylococcus aureus ATCC 6538P.
Test [26] concerns Staphylococcus aureus USA 100.
Test [27] has as its system Staphylococcus aureus USA 300.
Test [28] deals with Streptococcus pyogenes ATCC 49399.
The test system of test [29] is Candida albicans CGMCC 2.2086.
Test [30] has as its system Candida parapsilosis CGMCC 2.3989.
Test [31] concerns Candida tropicalis CGMCC 2.1975.
For test [32], the system named is Salmonella enterica subsp. enterica serovar Pullorum ATCC 7913.
In test [33] the test system is Salmonella enterica subsp. enterica serovar Typhimurium ATCC 14028.
The test system of test [34] is Salmonella enterica subsp. enterica serovar Typhimurium C77-31.
The subject of test [35] is Staphylococcus aureus ATCC 43300.
Test [36] concerns Staphylococcus epidermidis ATCC 12228.

Converted amounts (≈) assume the structure as drawn. “And” between values parts separate entries of the source, which are not always exact repeats. Equal entries are not always repeated.

In the case of `NCCCC[C@H](NC(=O)CNC(=O)[C@H](Cc1c[nH]c2ccccc12)NC(=O)[C@H](CCCCN)NC(=O)[C@H](CCCCN)NC(=O)CNC(=O)[C@H](Cc1c[nH]c2ccccc12)NC(=O)[C@H](CCCCN)NC(=O)[C@H](CCCCN)NC(=O)CNC(=O)[C@H](Cc1c[nH]c2ccccc12)NC(=O)[C@@H](N)CCCCN)C(N)=O` [KWGKKWGKKWGK], the MIC (as a rule, the lowest concentration found to suppress growth) in [1] was 4 µM (≈ 6.06 µg/mL); in [2], 8 µM (≈ 12.1 µg/mL); in [3], 4 µM (≈ 6.06 µg/mL); in test [4] it was 16 µM (≈ 24.3 µg/mL); in [5], 64 µM (≈ 97 µg/mL); in test [6] it was 8 µM (≈ 12.1 µg/mL).
Regarding `CC[C@H](C)[C@H](NC(=O)[C@H](CCC(N)=O)NC(=O)CN)C(=O)N[C@H](C(=O)N[C@@H](CC(N)=O)C(=O)N[C@@H](CC(C)C)C(=O)N[C@@H](CCCCN)C(=O)N[C@@H](C)C(=O)N[C@@H](CO)C(=O)N[C@@H](CC(C)C)C(=O)N[C@@H](CC(=O)O)C(=O)N[C@@H](CC(C)C)C(=O)N[C@@H](CC(C)C)C(N)=O)[C@@H](C)CC` [GQIINLKASLDLL], the MIC in test [7] was at least 143 µM; in [8] it was at least 119 µM; in [9], over 119 µM.
For `CC[C@H](C)[C@H](NC(=O)[C@H](CCCCN)NC(=O)[C@H](CCCCN)NC(=O)[C@@H](NC(=O)[C@@H](NC(=O)[C@H](CCCN=C(N)N)NC(=O)[C@H](CCCCN)NC(=O)[C@H](CCC(=O)O)NC(=O)CNC(=O)[C@H](C)N)[C@@H](C)CC)[C@@H](C)CC)C(=O)N[C@@H](CC(=O)O)C(=O)N[C@@H](CCC(=O)O)C(=O)N[C@@H](C)C(=O)N[C@@H](Cc1ccccc1)C(=O)N[C@@H](CCC(N)=O)C(=O)O` [AGEKRIIKKIDEAFQ], the MIC in test [10] is at least 73.3 µM.
On to `CC(C)C[C@H](NC(=O)[C@H](CCCN=C(N)N)NC(=O)[C@@H]1CCCN1C(=O)[C@H](Cc1cnc[nH]1)NC(=O)[C@@H]1CCCN1C(=O)[C@@H]1CCCN1C(=O)[C@H](CCCN=C(N)N)NC(=O)[C@@H]1CCCN1C(=O)[C@H](CCC(N)=O)NC(=O)[C@@H]1CCCN1C(=O)[C@H](CCCCN)NC(=O)[C@H](Cc1ccc(O)cc1)NC(=O)[C@@H](NC(=O)[C@@H]1CCCN1C(=O)[C@H](CCCCN)NC(=O)[C@H](CC(N)=O)NC(=O)[C@H](CC(N)=O)NC(=O)CN)C(C)C)C(=O)O` [GNNKPVYKPQPRPPHPRL], for which the MIC was found to be 0.017 µM (≈ 0.0356 µg/mL) against Escherichia coli BW25113; 0.034 µM (≈ 0.0712 µg/mL) in the test on Escherichia coli J2210; 0.031 µM (≈ 0.065 µg/mL) in the test on Escherichia coli JJ2489; 0.012 µM (≈ 0.0251 µg/mL) in the test on Escherichia coli JW0013; 0.096 µM (≈ 0.201 µg/mL) in [11]; 0.024 µM (≈ 0.0503 µg/mL) in test [12]. In addition, the MIC in the test with Escherichia coli MC1041 was 0.024 µM (≈ 0.0503 µg/mL); against Escherichia coli it was 0.048 µM (≈ 0.101 µg/mL); in test [13], 0.024 µM (≈ 0.0503 µg/mL); in [14] it was 0.031 µM (≈ 0.065 µg/mL); in [15], 0.024 µM (≈ 0.0503 µg/mL); in [16], 0.024 µM (≈ 0.0503 µg/mL). Also, the MIC in test [17] turned out to be 0.034 µM (≈ 0.0712 µg/mL).
In the case of `CC[C@H](C)[C@H](NC(=O)[C@H](CCCN=C(N)N)NC(=O)[C@@H](NC(=O)[C@H](CCCN=C(N)N)NC(=O)[C@H](Cc1c[nH]c2ccccc12)NC(=O)[C@H](Cc1ccccc1)NC(=O)[C@@H]1CCCN1)[C@@H](C)CC)C(=O)N[C@@H](CCCN=C(N)N)C(=O)N[C@@H](CCCN=C(N)N)C(N)=O` [PFWRIRIRR], the MIC in the test with Bacillus megaterium Bm11 is 1.25 µM (≈ 1.62 µg/mL); in [18], at least 100 µM; in test [19], at least 40 µM; in test [20], at least 40 µM; in [1], 8.71 µM and 10 µM; in test [21], at least 40 µM. Further, the MIC in test [22] was 40 µM (≈ 51.9 µg/mL); in test [23], 100 µM (≈ 130 µg/mL); in test [9] it was 24.6 µM (≈ 32 µg/mL); in test [24], at least 48.1 µM; in test [25] it was at least 40 µM; in test [26], 12.5 µM (≈ 16.2 µg/mL). Also, the figures for the MIC in [27] and in test [28] were 12.5 µM (≈ 16.2 µg/mL) and 2.5 µM (≈ 3.25 µg/mL), respectively.
Regarding `CC[C@H](C)[C@H](NC(=O)CNC(=O)[C@H](CCCN=C(N)N)NC(=O)[C@H](Cc1ccc(O)cc1)NC(=O)[C@@H](NC(=O)[C@H](CCCN=C(N)N)NC(=O)[C@H](Cc1ccccc1)NC(=O)[C@H](Cc1c[nH]c2ccccc12)NC(=O)[C@@H](N)CCCCN)C(C)C)C(=O)N[C@@H](Cc1ccc(O)cc1)C(N)=O` [KWFRVYRGIY], the minimal inhibitory concentration (MIC) against Escherichia coli C25 is at least 720 µM; in test [5], 180 µM (≈ 250 µg/mL).
`CC[C@H](C)[C@H](NC(=O)[C@H](CCCN=C(N)N)NC(=O)[C@H](C)NC(=O)[C@H](C)N)C(=O)N[C@H](C(=O)N[C@@H](CC(C)C)C(=O)N[C@@H](CCCN=C(N)N)C(=O)N[C@H](C(=O)N[C@@H](CCCN=C(N)N)C(=O)N[C@@H](Cc1ccccc1)C(=O)N[C@@H](CCCN=C(N)N)C(N)=O)[C@@H](C)O)[C@@H](C)CC` [AARIILRTRFR]: the MIC in test [29] is at least 128 µM; in test [30] it was at least 64 µM; in [31] it was at least 32 µM; in the test with Escherichia coli 078, 4 µM (≈ 5.49 µg/mL); in the test with Escherichia coli K88, 4 µM (≈ 5.49 µg/mL); in the test with Escherichia coli K99, 4 µM (≈ 5.49 µg/mL). For the same compound, the MIC against Escherichia coli UB1005 was 4 µM (≈ 5.49 µg/mL); in test [22], over 128 µM; in test [32], 8 µM (≈ 11 µg/mL); in test [33], 16 µM (≈ 21.9 µg/mL); in [34], 16 µM (≈ 21.9 µg/mL); in test [5], 16 µM (≈ 21.9 µg/mL). Also, the MIC in test [35] and in [36] was 16 µM (≈ 21.9 µg/mL) in each case.
